Data on nine molecules can be found in US20180327354A1, “Unnatural Analogues of Calcitriol and Uses Thereof” (Vidasym, Inc., priority 2009, published 2018).

Structures are written as SMILES. Where two headings read alike, the source gives them in different places.

Data set [1] in a line: Maximal absorbance wavelength and extinction coefficient (spectrophotometer scan). Type of data set: physicochemical. To be noted: 100 μM in 50:50 de-ionized water and ethanol; for extinction coefficient: in M-1·cm-1 (unit assumed). The protocol:
To determine the maximal absorbance wavelength (ODmax) and the extinction coefficients for the compounds, each compound is diluted in a 50:50 solution (by volume) of de-ionized water and ethanol at 100 μM and scanned by a spectrophotometer.

For the next data set, the system named is CYP24A1. The data set can be described thus: CYP24A1 expression induction in HL-60 promyelocytic leukemia cells (real-time RT-PCR). Type of data set: cell-based. The settings on record: Homo sapiens; HL-60 cells, 24 h, mRNA normalized to GAPDH; Table 3 summary, some values average of 3 or more determinations; read-out: CYP24A1 EC50. The protocol: (§1) Some compounds were tested in HL-60 promyelocytic leukemia cells and a primary culture of human coronary artery smooth muscle cells (HCASMC) for CYP24A1 induction. It is well documented that CYP24A1 has a VDRE in its promoter region and is a specific target gene of VDR (Meyer et al., 2007, J Biol Chem 282: 22344-22352). […] Compounds also were tested in HCASMC for their effects in inducing VDR. To assess the suitability of a compound for modulating immune responses, compounds were tested in HL-60 for their effects in inducing CD14 expression. To assess the suitability of a compound for treating thrombosis, compounds also were tested in HCASMC for their effects in modulating thrombomodulin and thrombospondin-1.
(§2) Compounds are tested in human HL-60 promyelocytic leukemia cells to assess their potency in inducing the expression of CYP24A1 and CD14. HL-60 cells are cultured in IMDM supplemented with 20% heat-inactivated fetal bovine serum at 37° C. in a humidified 5% CO2-95% air atmosphere. Cells are plated into 6 well plates and treated with test agent for 24 h. Cells are lysed with the addition of 1 mL of Trizol and RNA prepared according to the manufacturer's protocol.
(§3) Real-time reverse transcription-PCR is performed with the forward and reverse PCR primers and 250 nM of the TAQMAN™ probe specifically designed for CYP24A1 or CD14. (A TAQMAN™ probe is comprised of a fluorophore covalently attached to the 5′-end of the oligonucleotide probe and a quencher at the 3′-end.) After the data acquisition, the CYP24A1 or CD14 mRNA expression level is normalized to the GAPDH mRNA level. FIGS. 2A and 2B show the results from a typical CYP24A1 (FIG. 2A) and CD14 (FIG. 2B) expression study.
A general note: Real-time PCR tracks product formation cycle by cycle.

The next data set concerns CD14. The data set can be described thus: CD14 expression induction in HL-60 promyelocytic leukemia cells (real-time RT-PCR). Type of data set: cell-based. The settings on record: Homo sapiens; HL-60 cells, 24 h, mRNA normalized to GAPDH; Table 3 summary, some values average of 3 or more determinations; read-out: CD14 EC50. The protocol: as §1, §2, §3
The test system of the next data set is normal mice. The data set can be described thus: Hypercalcemic side effect profile and serum PTH in normal mice. In kind it is in vivo, Male C57/BL mice. The settings on record: for dose at which compound starts to raise serum Ca: i.p. dosing once daily for 3 consecutive days. Here is the method:
The normal mice model is a convenient and quick way to assess the hypercalcemic side effect profile of compounds. At the same time, data on serum PTH can be collected.
Male C57/BL mice at 18-20 g are dosed with the test agent at 100 al/mouse (concentrations as indicated) i.p. once daily for 3 consecutive days or at 10 ml/kg, p.o. gavage, once daily for 5 days. The animals were harvested 24 h after the last dose by anesthetization with ketamine/xylazine. Blood was collected from the aorta. Serum total calcium was measured using the QuantiChrom Calcium Assay kit and/or the Roche Hitachi 912 Chemistry Analyzer. Serum PTH was measured using a PTH Immunoassay. Vehicle control was 100 l/mouse of 5% EtOH/95% propylene glycol for i.p. dosing or 10 ml/kg of 20% Hydroxypropyl-β-Cyclodextrin for p.o. gavage dosing.
For serum chemistry data, group mean±SEM are presented. Differences between vehicle and compound-treated groups are assessed using a one-way ANOVA followed by a Dunnett's post-hoc test. FIGS. 3A and 3B show the results from a typical p.o. gavage dosing study (n=4-9 per group).

In another data set the test system is uremic rats. The settings on record: cited from earlier work.
[2] abbreviates: Slatopolsky et al., 1998, converted from ng/rat.

For orientation: EC50 means the concentration that produces a half-maximal response. In data set [1], `CCC(O)(CC)CCCO[C@H](C)C1CCC2/C(=C/C=C3C[C@@H](O)C4(CC4)[C@H](O)C3)CCCC21C` (stereo partly drawn) [Vida-20, (4R,8R)-6-((E)-2-((1S,7αS)-1-((R)-1-(4-ethyl-4-hydroxyhexyloxy)ethyl)-7α-methyldihydro-1H-inden-4(2H, 5H, 6H, 7H, 7αH)-ylidene)ethylidene)spiro[2.5]octane-4,8-diol] had a maximal absorbance wavelength of 253 nm and an extinction coefficient of 23340. Moreover, the EC50 with CYP24A1 turned out to be 6.7 nM. In addition, the EC50 with CD14 was 1.6 nM. Moreover, the “dose at which compound starts to raise serum Ca” value (“dose … to raise serum Ca” below) with normal mice was 1 µg/kg.

In data set [1], `C=C1[C@H](O)CC(=C/C=C2\CCCC3(C)C2CCC3[C@@H](C)CSc2cccc(C(C)(C)O)c2)C[C@H]1O` (stereo partly drawn) [Vida-43, (1R,3R)-5-((E)-2-(1-((R)-1-(3-(2-hydroxypropan-2-yl)phenylthio)propan-2-yl)-7α-methyldihydro-1H-inden-4(2H, 5H, 6H, 7H, 7αH)-ylidene)ethylidene)-2-methylenecyclohexane-1,3-diol] came in with a maximal absorbance wavelength of 254 nm and an extinction coefficient of 43580. In addition, the EC50 in the data set on CYP24A1 stood at 6.9 nM. Further, the EC50 in the data set on CD14 is 63 nM.

In the case of `C[C@@H](OC[C@H](C)C(C)(C)O)C1CCC2/C(=C/C=C3C[C@@H](O)C4(CC4)[C@H](O)C3)CCCC21C` (stereo partly drawn) [Vida-4, (4R,8R)-6-((E)-2-((3αS,7αS)-1-((R)-1-((S)-3-hydroxy-2,3-dimethylbutoxy)ethyl)-7α-methyldihydro-1H-inden-4(2H, 5H, 6H, 7H, 7αH)-ylidene)ethylidene) spiro[2.5]octane-4,8-diol], in data set [1], the maximal absorbance wavelength was 253 nm and the extinction coefficient stood at 23610. Besides, in the data set on CYP24A1, the EC50 stood at 190 nM. Further, in the data set with CD14, the EC50 came out at 31 nM. The “fold less potent in raising serum Ca than Vida-1” value in the data set on normal mice (i.p. dosing, FIG. 4) is on record as “at least 100 fold”.

In data set [1], `C=C1[C@H](O)CC(=C/C=C2\CCC[C@]3(C)[C@@H]([C@H](C)COc4ccccc4)CC[C@@H]23)C[C@H]1O` [Vida-36, (1R,3R)-5-((E)-2-((1R,3αS,7αR)-7α-methyl-1-((S)-1-phenoxypropan-2-yl)dihydro-1H-inden-4(2H, 5H, 6H, 7H, 7αH)-ylidene)ethylidene)-2-methylenecyclohexane-1,3-diol] showed a maximal absorbance wavelength of 254 nm and an extinction coefficient of 26850. The EC50 in the data set with CYP24A1 came to 249000 nM. Moreover, the EC50 in the data set with CD14 was 34000 nM.

With `C[C@@H](CSc1cccc(C(C)(C)O)c1)C1CCC2/C(=C/C=C3C[C@@H](O)C4(CC4)[C@H](O)C3)CCCC21C` (stereo partly drawn) [Vida-58, (4R,8R)-6-((E)-2-(1-((R)-1-(3-(2-hydroxypropan-2-yl)phenylthio)propan-2-yl)-7α-methyldihydro-1H-inden-4(2H,5H,6H, 7H, 7αH)-ylidene)ethylidene)spiro[2.5]octane-4,8-diol], the EC50 in the data set with CYP24A1 was 49 nM; in the data set with CD14, 125 nM.

As to `C=C1/C(=C\C=C2/CCC[C@]3(C)[C@@H]([C@H](C)CCCC(C)(C)O)CC[C@@H]23)C[C@@H](O)C[C@@H]1O` [calcitriol, 1,25-dihydroxyvitamin D3], in the data set with uremic rats (setting [2]), the “dose at which compound raises serum Ca” value was approximately 0.01 µg/kg and the “dose at which compound starts to suppress serum PTH” value is approximately 0.02 µg/kg. Also, in the data set on uremic rats (Slatopolsky et al., 1998), the “dose at which compound raises serum Ca” value is 4 ng/rat and the “dose at which compound starts to suppress serum PTH” value is 8 ng/rat.

Consider `C[C@@H](OCCC(C)(C)O)C1CCC2/C(=C/C=C3C[C@@H](O)C4(CC4)[C@H](O)C3)CCCC21C` (stereo partly drawn) [Vida-1, (4R,8R)-6-((E)-2-((1S,7αS)-1-((R)-1-(3-hydroxy-3-methylbutoxy)ethyl)-7α-methyldihydro-1H-inden-4(2H, 5H, 6H, 7H, 7αH)-ylidene)ethylidene)spiro[2.5]octane-4,8-diol], for which, in data set [1], the maximal absorbance wavelength was 253 nm. Besides, the extinction coefficient in data set [1] is 29550. Also, the EC50 with CYP24A1 came out at 69 nM; with CD14, 22 nM. Further, the “dose … to raise serum Ca” value in the data set on normal mice was 0.01 µg/kg.

For the molecule `C=C1[C@H](O)CC(=C/C=C2\CCCC3(C)C2CCC3[C@@H](C)COc2cccc(C(C)(C)O)c2)C[C@H]1O` (stereo partly drawn) [Vida-37, (1R,3R)-5-((E)-2-(1-((R)-1-(3-(2-hydroxypropan-2-yl)phenoxy)propan-2-yl)-7α-methyldihydro-1H-inden-4(2H, 5H, 6H, 7H, 7αH)-ylidene)ethylidene)-2-methylenecyclohexane-1,3-diol], in data set [1], the maximal absorbance wavelength was found to be 254 nm and the extinction coefficient is on record as 25720. Further, the EC50 in the data set with CYP24A1 is 6.1 nM. In the data set on CD14, the EC50 came to 12 nM. In addition, in the data set with normal mice, the “dose … to raise serum Ca” value is 10 µg/kg.

In data set [1], `C[C@@H](COc1cccc(C(C)(C)O)c1)[C@H]1CC[C@H]2/C(=C/C=C3C[C@@H](O)C4(CC4)[C@H](O)C3)CCC[C@]12C` [Vida-57, (4R,8R)-6-((E)-2-(1-((R)-1-(3-(2-hydroxypropan-2-yl)phenoxy)propan-2-yl)-7-methyldihydro-1H-inden-4(2H,5H,6H, 7H,7αH)-ylidene)ethylidene)spiro[2.5]octane-4,8-diol] came in with a maximal absorbance wavelength of 253 nm and an extinction coefficient of 49670. Besides, in the data set on CYP24A1, the EC50 was 36 nM. In addition, the EC50 in the data set on CD14 turned out to be 21 nM.
